Consider two compounds from patent US7919510B2 (priority 2005, dated 2011).

The target in test [1] is human endothelial constitutive NOS (eNOS) (Homo sapiens, UniProt P29474). As to the kind of experiment: biochemical. The settings on record: read-out: h-eNOS IC50.
The conditions of test [2]: human, open pilot study; cited from earlier work.

`CN1CCC(n2cnc3cc(NC(=N)c4cccs4)ccc32)CC1` [Compound 59]: the IC50 in test [1] came out at 6.66 µM.

`C/C1=C2/[N-][C@H]([C@H](CC(N)=O)[C@@]2(C)CCC(=O)NC[C@@H](C)OP(=O)([O-])O[C@H]2[C@@H](O)[C@@H](n3cnc4cc(C)c(C)cc43)O[C@@H]2CO)[C@]2(C)N=C(/C(C)=C3N=C(/C=C4N=C1[C@@H](CCC(N)=O)C\4(C)C)[C@@H](CCC(N)=O)[C@]\3(C)CC(N)=O)[C@@H](CCC(N)=O)[C@]2(C)CC(N)=O.[Co+3].[OH-]` [hydroxycobalamin]: the “patients with a reduction in the frequency of migraine attack of 50%” value in test [2] is listed as 53%.
